In the supplement of paper PMC8617591:

Tests used:
[1] = system: Mycobacterium tuberculosis Erdman (autoluminescent); assay: total FIC50 (Loewe) at 50% inhibition, three-drug combination (log2); higher = more antagonistic
Protocol: (§1)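 DiaMOND equipotent three-drug combination dose responses (10 doses, 1.5- or 2-fold spacing, centred on IC90) against autoluminescent M. tuberculosis Erdman in 8 in vitro models. Read-out is OD600, or luminescence for the intracellular and dormancy models, normalised to untreated wells. Hill-fit Einf, AUC25 and GRinf are potency metrics; FIC50 and FIC90 are total Loewe fractional inhibitory concentrations as log2 (negative = synergy).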

[2] = system: Mycobacterium tuberculosis Erdman (autoluminescent); assay: total FIC90 (Loewe) at 90% inhibition, three-drug combination (log2); higher = more antagonistic
Protocol: as §1

[3] = system: Mycobacterium tuberculosis Erdman (autoluminescent); assay: Einf, fitted maximum growth inhibition of three-drug combination (fraction); higher = stronger maximal inhibition
Protocol: as §1

[4] = system: Mycobacterium tuberculosis Erdman (autoluminescent); assay: AUC25, normalised area under dose response up to IC25 (three-drug combination) (fraction (0-1)); higher = more potent at low dose
Protocol: as §1

[5] = system: Mycobacterium tuberculosis Erdman (autoluminescent); assay: GRinf, maximum normalised growth rate inhibition (three-drug combination) (unitless (-1 to 1)); higher = less effect (negative = killing)
Protocol: as §1

CC(C)/N=c1\cc2n(-c3ccc(Cl)cc3)c3ccccc3nc-2cc1Nc1ccc(Cl)cc1 [clofazimine] + CC(=O)NC[C@H]1CN(c2ccc(N3CCOCC3)c(F)c2)C(=O)O1 [linezolid] + NC(=O)c1cnccn1 [pyrazinamide]
Settings | AUC25, [4] | Einf, [3] | GRinf, [5] | total FIC50, [1] | total FIC90, [2]
in vitro model: acidic pH 5.7, time point: constant (~7 days, model-specific) | 0.115 | 0.851 | -0.367 | -0.389 | –
in vitro model: acidic pH 5.7, time point: terminal (~4-5 doublings, model-specific) | 0.099 | 0.964 | -0.333 | 0.309 | -1.87
in vitro model: intracellular J774, time point: constant = terminal | – | 0.935 | -0.0585 | – | 0.0502

Settings | AUC25, [4] | Einf, [3] | GRinf, [5] | total FIC50, [1] | total FIC90, [2]
in vitro model: butyrate, time point: constant (~7 days, model-specific) | 0.121 | 0.931 | -0.0985 | -0.132 | 1.31
in vitro model: butyrate, time point: terminal (~4-5 doublings, model-specific) | 0.08 | 0.95 | -0.0789 | -0.0376 | 0.0936
in vitro model: cholesterol 0.05 mM, time point: constant (~7 days, model-specific) | 0.131 | 0.722 | -0.114 | – | –
in vitro model: cholesterol 0.05 mM, time point: terminal (~4-5 doublings, model-specific) | 0.142 | 0.927 | -0.198 | 0.348 | –
in vitro model: cholesterol-high 0.2 mM, time point: constant (~7 days, model-specific) | 0.137 | 0.934 | -0.71 | 0.27 | –
in vitro model: cholesterol-high 0.2 mM, time point: terminal (~4-5 doublings, model-specific) | 0.128 | 1 | -0.983 | -0.375 | 0.282
in vitro model: dormancy (butyrate + nitrate, low O2), time point: constant (~7 days, model-specific) | 0.104 | 0.958 | -0.0605 | 0.947 | 1.54
in vitro model: dormancy (butyrate + nitrate, low O2), time point: terminal (~4-5 doublings, model-specific) | 0.0414 | 0.986 | -0.449 | 0.584 | 0.337
in vitro model: standard 7H9 glycerol, time point: constant = terminal | 0.123 | 0.939 | -0.131 | 0.477 | –
in vitro model: valerate, time point: constant (~7 days, model-specific) | 0.119 | 0.8 | 0.241 | 0.731 | –
in vitro model: valerate, time point: terminal (~4-5 doublings, model-specific) | 0.0593 | 0.874 | 0.183 | 0.277 | -1.05

CC(C)/N=c1\cc2n(-c3ccc(Cl)cc3)c3ccccc3nc-2cc1Nc1ccc(Cl)cc1 [clofazimine] + CC(=O)NC[C@H]1CN(c2ccc(N3CCOCC3)c(F)c2)C(=O)O1 [linezolid] + O=[N+]([O-])c1cn2c(n1)OC[C@@H](OCc1ccc(OC(F)(F)F)cc1)C2 [pretomanid]
Settings | AUC25, [4] | Einf, [3] | GRinf, [5] | total FIC50, [1] | total FIC90, [2]
in vitro model: acidic pH 5.7, time point: constant (~7 days, model-specific) | 0.106 | 0.845 | -0.45 | 0.0449 | –
in vitro model: acidic pH 5.7, time point: terminal (~4-5 doublings, model-specific) | 0.0757 | 0.964 | -0.318 | 1.03 | 0.257
in vitro model: intracellular J774, time point: constant = terminal | – | 0.996 | -0.884 | – | 1.09

Settings | AUC25, [4] | Einf, [3] | GRinf, [5] | total FIC50, [1] | total FIC90, [2]
in vitro model: butyrate, time point: constant (~7 days, model-specific) | 0.124 | 0.962 | -0.311 | 0.534 | 1.52
in vitro model: butyrate, time point: terminal (~4-5 doublings, model-specific) | 0.0915 | 0.98 | -0.185 | 0.691 | 1.09
in vitro model: cholesterol 0.05 mM, time point: constant (~7 days, model-specific) | 0.133 | 0.677 | -0.0316 | -0.375 | –
in vitro model: cholesterol 0.05 mM, time point: terminal (~4-5 doublings, model-specific) | 0.136 | 0.918 | -0.14 | 0.13 | 2.05
in vitro model: cholesterol-high 0.2 mM, time point: constant (~7 days, model-specific) | 0.116 | 0.922 | -0.441 | 0.0459 | 1.18
in vitro model: cholesterol-high 0.2 mM, time point: terminal (~4-5 doublings, model-specific) | 0.123 | 1 | -0.938 | -0.122 | 0.391
in vitro model: dormancy (butyrate + nitrate, low O2), time point: constant (~7 days, model-specific) | 0.0841 | 0.925 | 0.221 | 0.87 | 1.32
in vitro model: dormancy (butyrate + nitrate, low O2), time point: terminal (~4-5 doublings, model-specific) | 0.0337 | 0.986 | -0.216 | 0.422 | 0.0103
in vitro model: standard 7H9 glycerol, time point: constant = terminal | 0.128 | 0.951 | -0.277 | 0.0629 | 0.915
in vitro model: valerate, time point: constant (~7 days, model-specific) | 0.14 | 0.85 | -0.138 | 0.292 | –
in vitro model: valerate, time point: terminal (~4-5 doublings, model-specific) | 0.0928 | 0.892 | 0.125 | 0.0202 | 1.37

CC(C)/N=c1\cc2n(-c3ccc(Cl)cc3)c3ccccc3nc-2cc1Nc1ccc(Cl)cc1 [clofazimine] + CC[C@@H](CO)NCCN[C@@H](CC)CO [ethambutol] + CC(=O)NC[C@H]1CN(c2ccc(N3CCOCC3)c(F)c2)C(=O)O1 [linezolid]
Settings | AUC25, [4] | Einf, [3] | GRinf, [5] | total FIC50, [1] | total FIC90, [2]
in vitro model: acidic pH 5.7, time point: constant (~7 days, model-specific) | 0.105 | 0.811 | -0.393 | 0.0935 | –
in vitro model: acidic pH 5.7, time point: terminal (~4-5 doublings, model-specific) | 0.0957 | 0.963 | -0.297 | 0.906 | 0.401
in vitro model: intracellular J774, time point: constant = terminal | – | 1 | -0.815 | – | 0.836

Settings | AUC25, [4] | Einf, [3] | GRinf, [5] | total FIC50, [1] | total FIC90, [2]
in vitro model: butyrate, time point: constant (~7 days, model-specific) | 0.11 | 0.96 | -0.165 | 0.534 | –
in vitro model: butyrate, time point: terminal (~4-5 doublings, model-specific) | 0.0792 | 0.977 | -0.123 | 0.703 | 0.483
in vitro model: cholesterol 0.05 mM, time point: constant (~7 days, model-specific) | 0.148 | 0.746 | -0.203 | – | –
in vitro model: cholesterol 0.05 mM, time point: terminal (~4-5 doublings, model-specific) | 0.165 | 0.917 | -0.514 | -0.786 | –
in vitro model: cholesterol-high 0.2 mM, time point: constant (~7 days, model-specific) | 0.129 | 0.925 | -1 | 0.0764 | –
in vitro model: cholesterol-high 0.2 mM, time point: terminal (~4-5 doublings, model-specific) | 0.125 | 1 | -0.967 | -0.259 | 0.74
in vitro model: dormancy (butyrate + nitrate, low O2), time point: constant (~7 days, model-specific) | 0.0953 | 0.783 | 0.496 | 0.231 | –
in vitro model: dormancy (butyrate + nitrate, low O2), time point: terminal (~4-5 doublings, model-specific) | 0.0972 | 0.963 | -0.701 | 0.197 | 0.279
in vitro model: standard 7H9 glycerol, time point: constant = terminal | 0.122 | 0.949 | -0.0541 | 0.243 | –
in vitro model: valerate, time point: constant (~7 days, model-specific) | 0.11 | 0.869 | -0.282 | 0.664 | –
in vitro model: valerate, time point: terminal (~4-5 doublings, model-specific) | 0.0648 | 0.881 | -0.0657 | 0.302 | -0.133
